Measured values reported in patent US9340577B2, “HLA binding motifs and peptides and their uses” (priority 1992, dated 2016).
No end group written: not given here.

Columns and labels:
Assay in all cases: biochemical
Format in all cases: binding
[1] = target: A31 (A*3101) (Homo sapiens, UniProt P04439, A270S/D185E/E176V/E277Q/F33T/G231S/G80R/H175R/I121M/I218V/I322F/K168Q/L300P/L318F/M331R/P217A/Q94H/R138Q/T323A/T345S/T97I/V358M)
[2] = target: A*3301 (Homo sapiens, UniProt P04439, A270S/D185E/E176V/E277Q/E87N/F33T/G231S/H175R/I121M/I218V/I322F/K168Q/K210R/L300P/L318F/M331R/P217A/Q86R/Q94H/R138Q/T323A/T345S/T97I/V358M/Y195H)
[3] = target: A*6801 (Homo sapiens, UniProt P04439, A269V/D185E/E176V/E277Q/E87N/F33Y/G231S/I121M/I166T/I218V/L180W/L300P/L318F/N151K/P208A/P217A/Q86R/R169H/T345S)
[4] = target: HLA-A3.2 (A*0301) (Homo sapiens, UniProt P04439)
[5] = target: HLA-A11 (A*1101) (Homo sapiens, UniProt P04439, A114D/D185E/E176A/F33Y/L180Q/S129P/T187R)

Row | Sequence | IC50 [1] | IC50 [2] | IC50 [3] | IC50 [4] | IC50 [5]
1 | AFADLTVVYR [Peptide 78.0058] | 140 nM | 249 nM | 39 nM | > 20000 nM | –
2 | AFKDLFVVYK [Peptide 88.0024] | 32 nM | 93 nM | 576 nM | 3260 nM | –
3 | AFTDLTIVYR [Peptide 78.0052] | 810 nM | 817 nM | 210 nM | > 20000 nM | –
4 | AILGHIVSPR [Peptide 9017.0225] | 4.6 nM | 74 nM | 92 nM | 14 nM | –
5 | ATNCTNKQR [Peptide 1589.20] | 51 nM | 13000 nM | – | 1830 nM | –
6 | DSNAQAFLK [Peptide 88.0379] | > 20000 nM | 20 nM | 39 nM | > 20000 nM | –
7 | EFTAFLVAFK [Peptide 88.0193] | – | 127 nM | 980 nM | 7480 nM | –
8 | EVHIPLGDAR [Peptide 9017.0217] | 9920 nM | – | 9.5 nM | 9390 nM | –
9 | GQGVSIEWRK [Peptide 9017.0219] | 8010 nM | > 20000 nM | 2210 nM | 15000 nM | –
10 | GQWIQSRCEK [Peptide 88.0166] | – | 4920 nM | > 20000 nM | 320 nM | –
11 | GVRRATTSTK [Peptide 88.0210] | 3630 nM | > 20000 nM | 18300 nM | 6.1 nM | –
12 | HLFGYSFYK [Peptide 76.0190] | 27 nM | 33 nM | – | 5.4 nM | –
13 | ILTAFNSSHK [Peptide 1589.03] | – | > 20000 nM | 6390 nM | 12 nM | –
14 | IMCLRFLSK [Peptide 1571.12] | 2300 nM | 2620 nM | 12900 nM | 11 nM | –
15 | KLFLKGVPKK [Peptide 1587.40] | 1040 nM | > 20000 nM | > 20000 nM | 16 nM | –
16 | KLTEDRWNK [Peptide 9017.0108] | 55 nM | > 20000 nM | > 20000 nM | – | 42 nM
17 | KMFCQLAR [Peptide 1556.53] | 35 nM | – | 249 nM | 22 nM | –
18 | KQIVMFLRY [Peptide 88.0330] | 4390 nM | 6400 nM | 2260 nM | – | 97 nM
19 | KQLCDLLIR [Peptide 1513.14] | 24 nM | 6900 nM | > 20000 nM | – | 1680 nM
20 | KQLQHTPSPY [Peptide 88.0204] | > 20000 nM | > 20000 nM | > 20000 nM | 117 nM | –
21 | KQRFHNIRGR [Peptide 78.0083] | 178 nM | 4440 nM | – | 2040 nM | –
22 | KTLLQQYCLY [Peptide 88.0130] | 2920 nM | 14400 nM | 7030 nM | 206 nM | –
23 | KTVRLIKFLY [Peptide 9017.0197] | 1300 nM | 6650 nM | 12000 nM | – | 235 nM
24 | KVCLRLLSK [Peptide 78.0302] | 525 nM | > 20000 nM | > 20000 nM | – | 230 nM

Row | Sequence | IC50 [1] | IC50 [2] | IC50 [3] | IC50 [4] | IC50 [5]
25 | KVSEFRWYRY [Peptide 78.0053] | 11 nM | 7070 nM | 1910 nM | – | 24 nM
26 | LLCGPANTGK [Peptide 88.0195] | 3650 nM | > 20000 nM | 1900 nM | 137 nM | –
27 | LQGLAQSRYK [Peptide 88.0201] | 4010 nM | > 20000 nM | > 20000 nM | 1100 nM | –
28 | LTALIKPKK [Peptide 9017.0100] | 2480 nM | 1110 nM | 27 nM | – | 71 nM
29 | LTALIKPKKR [Peptide 9017.0231] | 1300 nM | 8720 nM | 39 nM | 6460 nM | –
30 | LTARNVLVK [Peptide 9012.0213] | > 20000 nM | > 20000 nM | 52 nM | 23 nM | –
31 | LTKMFCQLAK [Peptide 1556.51] | 2380 nM | 12600 nM | 173 nM | 940 nM | –
32 | LTYDSEWQR [Peptide 1589.04] | – | – | 14 nM | 888 nM | –
33 | LTYISTSQR [Peptide 1589.19] | 39 nM | 79 nM | 0.76 nM | 14 nM | –
34 | LVKHHMYVSK [Peptide 9017.0216] | 347 nM | – | 17 nM | 574 nM | –
35 | MLIEPPKLR [Peptide 88.0366] | 3160 nM | 150 nM | 12 nM | – | 2880 nM
36 | MTLESILRR [Peptide 9012.0215] | 243 nM | 94 nM | 15 nM | – | 14 nM
37 | MVVLLLVRYK [Peptide 1587.04] | – | 4480 nM | 720 nM | 2630 nM | –
38 | NTKANILYK [Peptide 88.0358] | – | 693 nM | 100 nM | 2120 nM | –
39 | NTMHYTNWK [Peptide 1589.16] | 4920 nM | 402 nM | 11 nM | – | 11 nM
40 | NVCVSWKYK [Peptide 88.0383] | 265 nM | 2460 nM | 628 nM | – | 927 nM
41 | PVRPQVPLR [Peptide 66.0063] | – | – | – | > 20000 nM | –
42 | QVNCKGIYY [Peptide 88.0408] | > 20000 nM | > 20000 nM | > 20000 nM | – | 1620 nM
43 | RAHSSHLR [Peptide 1556.71] | 40 nM | – | 1720 nM | 1910 nM | –
44 | RQLFLNTVK [Peptide 1589.44] | 87 nM | > 20000 nM | 16200 nM | – | 39 nM
45 | RQQFLKTVK [Peptide 1589.33] | 45 nM | – | > 20000 nM | 1320 nM | –
46 | RVHSSHLKSKK [Peptide 1556.75] | 300 nM | 12000 nM | 2150 nM | – | 20 nM
47 | SFFSRTWCK [Peptide 88.0363] | 12 nM | 4 nM | 66 nM | – | 16 nM
48 | SQACALYWFR [Peptide 88.0192] | 42 nM | – | 85 nM | 4660 nM | –

Row | Sequence | IC50 [1] | IC50 [2] | IC50 [3] | IC50 [4] | IC50 [5]
49 | SQISYWQLIR [Peptide 88.0220] | – | > 20000 nM | 934 nM | 2610 nM | –
50 | SSLARRHMAR [Peptide 9017.0193] | 4.8 nM | 190 nM | 869 nM | – | 928 nM
51 | STTETADPK [Peptide 88.0441] | 3580 nM | > 20000 nM | 74 nM | – | 17 nM
52 | SVCMGGMNR [Peptide 1556.60] | 92 nM | 78 nM | – | 157 nM | –
53 | SVFQNLQVIK [Peptide 9012.0231] | 3560 nM | 6220 nM | 16 nM | – | 11 nM
54 | TFPNPFPFDK [Peptide 88.0162] | 2260 nM | 1830 nM | 1110 nM | – | 221 nM
55 | TIVYIEYRK [Peptide 9017.0118] | 13700 nM | – | 18 nM | 8830 nM | –
56 | TLSAELPK [Peptide 1556.24] | > 20000 nM | > 20000 nM | > 20000 nM | – | 102 nM
57 | TLTYISTSQR [Peptide 88.0211] | 688 nM | 1010 nM | 56 nM | – | 8270 nM
58 | TSNECTNNK [Peptide 1589.31] | 8910 nM | > 20000 nM | – | 4790 nM | –
59 | TTLEKLTNK [Peptide 78.0283] | 598 nM | 469 nM | 2560 nM | – | 42 nM
60 | TVTVSAELPK [Peptide 1556.16] | > 20000 nM | > 20000 nM | – | 3430 nM | –
61 | VLCTYSPALNK [Peptide 1556.36] | 4800 nM | > 20000 nM | 14700 nM | – | 150 nM
62 | VLMWKFDSR [Peptide 9017.0066] | 72 nM | 63 nM | 516 nM | – | 883 nM
63 | VQFKSECEK [Peptide 88.0419] | 2680 nM | 4770 nM | > 20000 nM | – | 20 nM
64 | VQVYFDGNK [Peptide 88.0399] | > 20000 nM | > 20000 nM | – | 2050 nM | –
65 | VTVYDGVPVWK [Peptide 1539.09] | 18300 nM | > 20000 nM | 362 nM | – | 19 nM
66 | VTVYYGVPVRR [Peptide 1525.07] | 59 nM | 795 nM | 32 nM | – | 271 nM
67 | WFYVQAIVDK [Peptide 88.0140] | > 20000 nM | > 20000 nM | 19500 nM | – | 12900 nM
68 | WLSEPQKCFK [Peptide 88.0236] | 2340 nM | 617 nM | – | 1690 nM | –
69 | YLTAPTGCLK [Peptide 1589.15] | > 20000 nM | > 20000 nM | 2560 nM | – | 573 nM
70 | YSVYGTTLEK [Peptide 78.0054] | > 20000 nM | > 20000 nM | 36 nM | – | 100 nM
